Assay results taken from patent US9315546B2, “Growth hormone secretatogue receptor antagonists and uses thereof” (The Administrators of the Tulane Educational Fund, priority 2010, dated 2016).
Where a SMILES comes first, the peptide text is derived from it. Where no end group is shown, it is not given here. [ ]: non-standard residue; d: D form. The star is where a group is joined. d2Nal = N[C@H](Cc1ccc2ccccc2c1)C(=O)O; Octanoyl = CCCCCCCC(=O)*; Dap = NC[C@H](N)C(=O)O

What was measured:
[1] = target: T1, hypothalamic ghrelin receptor (Rattus norvegicus, UniProt O08725); test: Spontaneous and ghrelin-stimulated GH secretion after icv ghrelin analogs in adult male rats; format: in vivo; parameters: from tissue; host or cells: whole animal (adult male rats); conditions: for spontaneous growth hormone secretion / plasma GH levels: ghrelin analog 10 μg icv, 6-h sampling
Method: (§1) In vivo effects were measured on spontaneous and ghrelin-stimulated GH secrtion over a 6-h sampling period, and food intake monitored hourly over a 5-h period and body weight change over 24 h.

[2] = target: T1, hypothalamic ghrelin receptor; test: Food intake and body weight change after icv ghrelin analogs in adult male rats; format: in vivo; parameters: from tissue; host or cells: whole animal (adult male rats); conditions: ghrelin analog 10 μg icv; for body weight gain: change over 24 h; for (cumulative) food intake: monitored hourly over 5 h
Method: as §1

GOAT = target: T2, GOAT (Homo sapiens, UniProt Q96T53); test: Acyl Transferase activity of GOAT in vitro; format: biochemical
T2 sequence (Q96T53 1-435): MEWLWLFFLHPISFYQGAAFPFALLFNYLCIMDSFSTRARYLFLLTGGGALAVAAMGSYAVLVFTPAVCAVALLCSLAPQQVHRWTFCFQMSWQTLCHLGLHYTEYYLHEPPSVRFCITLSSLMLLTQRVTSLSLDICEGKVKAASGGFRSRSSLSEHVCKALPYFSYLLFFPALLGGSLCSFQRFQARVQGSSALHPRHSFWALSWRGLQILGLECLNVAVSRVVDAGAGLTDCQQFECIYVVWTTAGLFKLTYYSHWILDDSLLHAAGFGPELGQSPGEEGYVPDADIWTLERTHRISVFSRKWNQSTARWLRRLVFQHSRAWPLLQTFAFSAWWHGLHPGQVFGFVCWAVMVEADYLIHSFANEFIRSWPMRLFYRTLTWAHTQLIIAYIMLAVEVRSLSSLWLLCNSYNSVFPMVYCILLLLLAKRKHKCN

[3] = target: T3, Ghrelin/GHRP/GHS Receptor (Rattus norvegicus, UniProt O08725); test: GH release from isolated pituitary glands, pituitary incubation method; format: cell-based
Method: Hormonal activities were obtained from in vitro studies using pituitaries of 20 day old CD-1 strain Sprague Dawley female rats. Two pituitaries were incubated for a total of 4-6 hours. Medium was removed each hour for RIA of GH level and fresh medium was added again. After two one hour preincubation periods (P1-P2), the vehicle/peptides were added to two one hour incubations (I3-I4). Peptide activity was calculated as the change in the hormonal level (delta) between I3+I4 and P2. For antagonist activity, the incubation was continued for 2 additional hours (I5-I6) where both the peptide and a stimulator of GH secretion was added and the antagonist activity was calculated as the change in the hormonal level (delta) between I5+I6 and P2. The peptides were assayed in triplicate and the hormone was assayed in duplicate. Each value recorded represents the mean of 6. The GH RIA reagents were distributed by the NIH. Control data was collected from isolated pituitary glands treated with only the corresponding vehicle in the absence of peptide or stimulator. Control stimulated data was collected from isolated pituitary glands treated with stimulator alone in the absence of any peptide.

GHS-R 1a [4] = target: T4, GHS-R 1a (Rattus norvegicus, UniProt O08725); test: Spontaneous pulsatile GH secretion in free-moving adult male rats; format: in vivo
T4 construct: free-moving rats were i.c.v. injected with either normal saline or GHS-A (5 μg); from tissue; host or cells: whole animal (adult male Sprague Dawley rats)
Method: Adult male Sprague Dawley rats (225-260 g) were purchased from Charles River Canada (St. Constant, Canada) and individually housed on a 12-h light, 12-h dark cycle (lights on, 0600-1800 h) in a temperature (22±1° C.)—and humidity-controlled room. Purina rat chow (Ralston Purina Co., St. Louis, Mo.) and tap water were available ad libitum.
Chronic intracerebroventricular (i.c.v.) and intracardiac venous cannulas were implanted under sodium pentobarbital (50 mg/kg, i.p.) anesthesia using previously described techniques in (2) and (11). The placement of the icy cannulae was verified by both a positive drinking response to i.c.v. carbachol (100 ng/10 μl) injection on the day after surgery and methylene blue dye at the time of death. After surgery, the rats were placed directly in isolation test chambers with food and H2O freely available until body weight returned to preoperative levels (usually within 5-7 d). During this time the rats were handled daily to minimize any stress associated with handling on the day of the experiment. On the test day, food was removed 1.5 h before the start of sampling and was returned at the end.
These time points were chosen because they correspond closely to the time of onset of the spontaneous GH secretory episodes, as previously documented in our laboratory (2, 4). Blood samples were withdrawn from 1000-1600 h, as described above; however, no blood sample was withdrawn 5 min after the injections.

GHS-R 1a [5] = target: T4, GHS-R 1a; test: Spontaneous and ghrelin-induced food intake in rats; format: in vivo
Method: The effects of the GHS-A on both spontaneous and ghrelin-induced food intake and body weight gain were investigated. For the spontaneous experiments, the rats were fasted overnight (1600-1100 h next morning) and were i.c.v.-injected with either normal saline or GHS-A (5 μg) at 1100 h. Food intake was monitored on an hourly basis for 5 h after the initial injection (until 1600 h) and subsequently overnight (1600-0900 h next morning). A measured amount of rat chow pellets was placed in the cage every hour. Spillage was collected by placement of a diaper under the rat cages, and total food consumed for each period was calculated by subtracting uneaten food plus spillage from total given. Body weights were recorded daily at 0900 h. The latency to the onset of the first meal after the injection and the duration of that meal were also monitored.
Food intake was monitored on an hourly basis as described above. In this experiment, food was removed 1.5 h before the start of the test.

[6] = target: T3, Ghrelin/GHRP/GHS Receptor; test: In vivo GH release in rat after i.v. peptide (serum GH by RIA)
Method: For the in vivo assay of GH Release in rat, immature female Sprague Dawley rats were obtained from Charles River from Wilmington, Mass. After arrival they were housed at 25° C. with a 14:10 h light:dark cycle. Water and Purina rat chow were available at libitum. Pups were weaned at 21 days of age.
Immature twenty six day old female Sprague Dawley rats, 3-6 rats per treatment dose, were pretreated with pentobarbital 20 minutes before iv injection of vehicle/peptide or peptide plus stimulator. Injection was made as a 0.1 ml solution. For the non-pentobarbital treated rat assay, peptides were administered iv into the tail vein of conscious rats. All animals were sacrificed by guillotine after iv peptide or vehicle. Trunk blood was collected at +10-15 minutes […], allowed to clot, centrifuged and serum stored until assayed for GH levels by RIA. The GH RIA reagents were distributed by the NIH. Control data was collected from rats treated with only the corresponding vehicle in the absence of peptide or stimulator. Control stimulated data was collected from rats treated with stimulator alone in the absence of any peptide.

GHRH = test: GH response to GHRH in rats; format: in vivo, rat; conditions: GHRH 5 μg i.v.
GHS-R 1a [7] = target: T4, GHS-R 1a; test: Ghrelin-induced GH release in free-moving adult male rats; format: in vivo; conditions: for GH response to i.c.v. ghrelin: 5 μg antagonist i.c.v. 15 min before 500 ng ghrelin i.c.v.
Method: Adult male Sprague Dawley rats (225-260 g) were purchased from Charles River Canada (St. Constant, Canada) and individually housed on a 12-h light, 12-h dark cycle (lights on, 0600-1800 h) in a temperature (22±1° C.)—and humidity-controlled room. Purina rat chow (Ralston Purina Co., St. Louis, Mo.) and tap water were available ad libitum. Chronic intracerebroventricular (i.c.v.) and intracardiac venous cannulas were implanted under sodium pentobarbital (50 mg/kg, i.p.) anesthesia using previously described techniques in (2) and (11). […] During this time the rats were handled daily to minimize any stress associated with handling on the day of the experiment. On the test day, food was removed 1.5 h before the start of sampling and was returned at the end. […] Both the human ghrelin peptide (provided by Dr. K. Chang, Phoenix Pharmaceuticals, Inc., Belmont, Calif.) and the GHS-A were diluted in normal saline just before use. Blood samples (0.35 ml) were withdrawn every 15 min over a 6-h sampling period (1000-1600 h) from all animals. […] All blood samples were immediately centrifuged, and plasma was separated and stored at −20° C. for subsequent assay of GH. To avoid hemodynamic disturbance, the red blood cells were resuspended in normal saline and returned to the animal after removal of the next blood sample. […] Blood samples were withdrawn from 1000-1600 h, as described above.

[8] = listed as Gly-Met-Ala-Gly-Ser-(Dap-Oct)-Phe-Leu-Ser-Pro-Glu-His-NH2
[9] = listed as GMA{Dap^3Oct}ghrelinNH2 1-9
[10] = peptide antagonist 30 μg/ml + stimulator His-DTrp-Ala-Trp-DPhe-Lys-NH2 10 ng/ml
[11] = 5 μg i.c.v. before ghrelin 500 ng i.c.v.
[12] = 5 μg i.c.v., overnight-fasted animals

T1 sequence (O08725 whole entry): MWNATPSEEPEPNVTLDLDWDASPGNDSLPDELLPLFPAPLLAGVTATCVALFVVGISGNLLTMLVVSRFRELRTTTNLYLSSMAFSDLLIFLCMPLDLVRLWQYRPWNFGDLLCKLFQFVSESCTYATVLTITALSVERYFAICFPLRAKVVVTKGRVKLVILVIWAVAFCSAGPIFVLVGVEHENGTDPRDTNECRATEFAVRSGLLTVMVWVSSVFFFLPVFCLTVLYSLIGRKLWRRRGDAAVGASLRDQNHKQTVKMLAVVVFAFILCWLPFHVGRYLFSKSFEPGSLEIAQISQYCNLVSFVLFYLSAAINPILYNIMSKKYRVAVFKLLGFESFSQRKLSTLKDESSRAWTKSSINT
T4 sequence (O08725 whole entry): as above
T3 sequence (O08725 whole entry): as above

In the case of `CCCCCCCC(=O)NC[C@H](NC(=O)[C@H](CO)NC(=O)CNC(=O)[C@H](C)NC(=O)[C@H](CCSC)NC(=O)CN)C(=O)N[C@@H](Cc1ccccc1)C(=O)N[C@@H](CC(C)C)C(=O)N[C@@H](CO)C(=O)N1CCC[C@H]1C(=O)N[C@@H](CCC(=O)O)C(=O)N[C@@H](Cc1c[nH]cn1)C(N)=O` [#3, Gly-Met-Ala-Gly-Ser-(Dap-Oct)-Phe-Leu-Ser-Pro-Glu-His-NH2] (H-GMAGS[Dap](Octanoyl)FLSPEH-NH2; N-terminus assumed), the “decrease in mean plasma GH levels compared with controls” value ([1]; central administration) is reported as 3-to-4 fold, the “spontaneous growth hormone secretion / plasma GH levels” value [1] is reported as “inhibited growth hormone secretion” and the “spontaneous growth hormone secretion / plasma GH levels” value ([1]; listed as GMA duodecapeptide ghrelin analog) is reported as “inhibitory activity”. The “spontaneous growth hormone secretion / plasma GH levels” value [1, 8] was “inhibited”, the “stimulatory action of ghrelin on GH release after pretreatment” value ([1]; pretreatment with analog) was “blocked” and the body weight gain [2, 9] was “inhibits”. The body weight gain ([2]; listed as duodecapeptide) was “effective”, the “(cumulative) food intake” value [2] was “inhibited food intake” and the “(cumulative) food intake” value [2, 9] was “inhibits”. For the same compound, the “(cumulative) food intake” value [2, 8] was “reduced”, the “(cumulative) food intake” value ([2]; listed as duodecapeptide) was “effective” and the “inhibition of the Acyl Transferase activity of GOAT” value (GOAT) was “ineffective”.

With “DesaminoTyr-DTrp-Ser-Trp-DPhe-NH2 [10-DesaminoTyr-DTrp-Ser-Trp-DPhe-NH2]” the “Stimulated GH release” value [3, 10] was 3258 ± 682 ng/mL.

For “H[d2Nal][dK]W[dF]K-NH2 [4-His-DβNal-DLys-Trp-DPhe-Lys-NH2]”, the “1-h GH AUC's of spontaneous GH secretory episodes (1100 h, 1400 h) and overall 6-h GH AUC” value (GHS-R 1a [4]; 5 μg i.c.v.) was “significantly reduced”, the “GH peak frequency, interpeak interval and nadir (cluster analysis)” value (GHS-R 1a [4]; 5 μg i.c.v.) was “no significant effect” and the “GH peak height (cluster analysis)” value (GHS-R 1a [4]; 5 μg i.c.v.) was “significant suppression”. For the same compound, the “amplitude of the spontaneous GH pulses” value (GHS-R 1a [4]; 5 μg i.c.v. 15 min before expected GH bursts) was “severely attenuated”, the “cumulative food intake after ghrelin, up to 5 h” value (GHS-R 1a [5]; [11]) was “significantly suppressed” and the “ghrelin-stimulated food intake, first hour after injections” value (GHS-R 1a [5]; [11]) was “significantly inhibited”. The “cumulative spontaneous food intake beyond the first hour” value (GHS-R 1a [5]; [12]) was “not inhibited”, the “spontaneous food intake, first hour after injection” value (GHS-R 1a [5]; [12]) was “significantly inhibited” and the “Stimulated GH release” value ([6]; peptide antagonist 30 μg i.v. + stimulator 0.3 μg) was 733 ± 85 ng/mL. The “Stimulated GH release” value ([6]; peptide antagonist 100 μg i.v. + stimulator 1 μg) was 818 ± 269 ng/mL, the “GH response to GHRH” value (GHRH) was “did not significantly reduce” and the “GH response to i.c.v. ghrelin” value (GHS-R 1a [7]) was “virtually obliterated”. For the same compound, the “GH response to i.c.v. ghrelin” value (GHS-R 1a [7]; listed as GHS-A) was “abolished”, the “reduction of GH AUC following i.c.v. ghrelin vs saline-pretreated controls” value (GHS-R 1a [7]; 5 μg i.c.v. pretreatment, ghrelin 500 ng i.c.v.) was 15 fold and the “GH response to i.v. ghrelin” value (GHS-R 1a [7]; 250 μg antagonist i.v. 15 min before 5 μg ghrelin i.v., listed as GHS-A) was “strongly blocked”. The “reduction of GH AUC following i.v. ghrelin vs saline-pretreated controls” value (GHS-R 1a [7]; 250 μg i.v. pretreatment, ghrelin 5 μg i.v.) was 5 fold.

In the case of “H[dW][dK]W[dF]K-NH2 [6-His-DTrp-DLys-Trp-DPhe-Lys-NH2]”, the “Stimulated GH release” value ([3]; peptide antagonist 1 μg/ml + stimulator His-DTrp-Ala-Trp-DPhe-Lys-NH2 10 ng/ml) is reported as 324 ± 181 ng/mL.

Y[dW]AW[dF]-NH2 [reference compound] was tested, and the “Stimulated Control GH release (stimulator *S alone)” value ([3]; Table 12, *S = Tyr-DTrp-Ala-Trp-DPhe-NH2 0.3 μg/ml) was 2218 ± 194 ng/mL.

For “Y[dW][dW]FF-NH2 [12-Tyr-DTrp-DTrp-Phe-Phe-NH2]”, the “Stimulated GH release” value [3, 10] was -167 ± 157 ng/mL.
